# Assay results from PubChem BioAssay (NCI).
#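 Values below derive from 48-hour exposures of cells grown in 96-well plates, with endpoints linearly interpolated between the two concentrations bracketing the appropriate inhibition level. TGI denotes the concentration required for complete inhibition of growth.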
# Test system: MDA-N
# Assay: NCI anticancer screen, dose series, 48 h
row,Structure (SMILES),TGI [µM]
1,Cn1c(CCC2(C)Cc3ccccc3C(=O)O2)cc2ccccc2c1=O (stereo not given),49.8

# Test system: OVCAR-3 ovarian
# Assay: NCI anticancer screen, dose series, 48 h
row,Structure (SMILES),TGI [µM]
1,C[C@]12OC(=O)[C@]3(O)CC[C@H]4[C@@H](C[C@@H](O)[C@@]5(Cl)CC=CC(=O)[C@]45C)[C@]45OCC6C(=O)O[C@@H]1C[C@@]6(C)[C@H](C4=O)[C@@]32O5 (stereo not given in full),6.65
2,COc1ccc2nc3n[nH]c(N)c3nc2c1,38.3
3,O=C(NC(N1CCN(c2cc3c(cc2F)c(=O)c(C(=O)O)cn3C2CC2)CC1)(C(F)(F)F)C(F)(F)F)c1ccccc1,96.1
4,Cc1cc2nc3[nH]c4c(Cl)cc(Cl)cc4c3nc2cc1C,> 100
5,Cn1c(CCC2(C)Cc3ccccc3C(=O)O2)cc2ccccc2c1=O (stereo not given),54

# Test system: HOP-62 NSCLC
# Assay: NCI anticancer screen, dose series, 48 h
row,Structure (SMILES),TGI [µM]
1,C[C@]12OC(=O)[C@]3(O)CC[C@H]4[C@@H](C[C@@H](O)[C@@]5(Cl)CC=CC(=O)[C@]45C)[C@]45OCC6C(=O)O[C@@H]1C[C@@]6(C)[C@H](C4=O)[C@@]32O5 (stereo not given in full),10.3
2,COc1ccc2nc3n[nH]c(N)c3nc2c1,> 76.5
3,O=C(NC(N1CCN(c2cc3c(cc2F)c(=O)c(C(=O)O)cn3C2CC2)CC1)(C(F)(F)F)C(F)(F)F)c1ccccc1,> 100
4,Cc1cc2nc3[nH]c4c(Cl)cc(Cl)cc4c3nc2cc1C,> 100
5,Cn1c(CCC2(C)Cc3ccccc3C(=O)O2)cc2ccccc2c1=O (stereo not given),48

# Test system: NCI-H226 lung
# Assay: NCI anticancer screen, dose series, 48 h
row,Structure (SMILES),TGI [µM]
1,C[C@]12OC(=O)[C@]3(O)CC[C@H]4[C@@H](C[C@@H](O)[C@@]5(Cl)CC=CC(=O)[C@]45C)[C@]45OCC6C(=O)O[C@@H]1C[C@@]6(C)[C@H](C4=O)[C@@]32O5 (stereo not given in full),9.37
2,COc1ccc2nc3n[nH]c(N)c3nc2c1,24.8
3,O=C(NC(N1CCN(c2cc3c(cc2F)c(=O)c(C(=O)O)cn3C2CC2)CC1)(C(F)(F)F)C(F)(F)F)c1ccccc1,> 100
4,Cc1cc2nc3[nH]c4c(Cl)cc(Cl)cc4c3nc2cc1C,> 100
5,Cn1c(CCC2(C)Cc3ccccc3C(=O)O2)cc2ccccc2c1=O (stereo not given),54.7

# Test system: HCC-2998 colon
# Assay: NCI anticancer screen, dose series, 48 h
row,Structure (SMILES),TGI [µM]
1,C[C@]12OC(=O)[C@]3(O)CC[C@H]4[C@@H](C[C@@H](O)[C@@]5(Cl)CC=CC(=O)[C@]45C)[C@]45OCC6C(=O)O[C@@H]1C[C@@]6(C)[C@H](C4=O)[C@@]32O5 (stereo not given in full),2.55
2,COc1ccc2nc3n[nH]c(N)c3nc2c1,> 74
3,O=C(NC(N1CCN(c2cc3c(cc2F)c(=O)c(C(=O)O)cn3C2CC2)CC1)(C(F)(F)F)C(F)(F)F)c1ccccc1,66
4,Cn1c(CCC2(C)Cc3ccccc3C(=O)O2)cc2ccccc2c1=O (stereo not given),> 100

# Test system: UACC-257 melanoma
# Assay: NCI anticancer screen, dose series, 48 h
row,Structure (SMILES),TGI [µM]
1,C[C@]12OC(=O)[C@]3(O)CC[C@H]4[C@@H](C[C@@H](O)[C@@]5(Cl)CC=CC(=O)[C@]45C)[C@]45OCC6C(=O)O[C@@H]1C[C@@]6(C)[C@H](C4=O)[C@@]32O5 (stereo not given in full),8.2
2,COc1ccc2nc3n[nH]c(N)c3nc2c1,90.4
3,O=C(NC(N1CCN(c2cc3c(cc2F)c(=O)c(C(=O)O)cn3C2CC2)CC1)(C(F)(F)F)C(F)(F)F)c1ccccc1,80.8

# Test system: OVCAR-5 ovarian
# Assay: NCI anticancer screen, dose series, 48 h
row,Structure (SMILES),TGI [µM]
1,C[C@]12OC(=O)[C@]3(O)CC[C@H]4[C@@H](C[C@@H](O)[C@@]5(Cl)CC=CC(=O)[C@]45C)[C@]45OCC6C(=O)O[C@@H]1C[C@@]6(C)[C@H](C4=O)[C@@]32O5 (stereo not given in full),3.23
2,COc1ccc2nc3n[nH]c(N)c3nc2c1,> 87.2
3,O=C(NC(N1CCN(c2cc3c(cc2F)c(=O)c(C(=O)O)cn3C2CC2)CC1)(C(F)(F)F)C(F)(F)F)c1ccccc1,65.4
4,Cc1cc2nc3[nH]c4c(Cl)cc(Cl)cc4c3nc2cc1C,> 100
5,Cn1c(CCC2(C)Cc3ccccc3C(=O)O2)cc2ccccc2c1=O (stereo not given),> 100

# Test system: NCI-H23 lung
# Assay: NCI anticancer screen, dose series, 48 h
row,Structure (SMILES),TGI [µM]
1,C[C@]12OC(=O)[C@]3(O)CC[C@H]4[C@@H](C[C@@H](O)[C@@]5(Cl)CC=CC(=O)[C@]45C)[C@]45OCC6C(=O)O[C@@H]1C[C@@]6(C)[C@H](C4=O)[C@@]32O5 (stereo not given in full),1.83
2,COc1ccc2nc3n[nH]c(N)c3nc2c1,15.5
3,O=C(NC(N1CCN(c2cc3c(cc2F)c(=O)c(C(=O)O)cn3C2CC2)CC1)(C(F)(F)F)C(F)(F)F)c1ccccc1,89.2
4,Cc1cc2nc3[nH]c4c(Cl)cc(Cl)cc4c3nc2cc1C,> 100
5,Cn1c(CCC2(C)Cc3ccccc3C(=O)O2)cc2ccccc2c1=O (stereo not given),83

# Test system: UACC-62 melanoma
# Assay: NCI anticancer screen, dose series, 48 h
row,Structure (SMILES),TGI [µM]
1,C[C@]12OC(=O)[C@]3(O)CC[C@H]4[C@@H](C[C@@H](O)[C@@]5(Cl)CC=CC(=O)[C@]45C)[C@]45OCC6C(=O)O[C@@H]1C[C@@]6(C)[C@H](C4=O)[C@@]32O5 (stereo not given in full),4.2
2,COc1ccc2nc3n[nH]c(N)c3nc2c1,19.8
3,O=C(NC(N1CCN(c2cc3c(cc2F)c(=O)c(C(=O)O)cn3C2CC2)CC1)(C(F)(F)F)C(F)(F)F)c1ccccc1,> 100
4,Cc1cc2nc3[nH]c4c(Cl)cc(Cl)cc4c3nc2cc1C,> 100

# Test system: COLO 205 colon
# Assay: NCI anticancer screen, dose series, 48 h
row,Structure (SMILES),TGI [µM]
1,C[C@]12OC(=O)[C@]3(O)CC[C@H]4[C@@H](C[C@@H](O)[C@@]5(Cl)CC=CC(=O)[C@]45C)[C@]45OCC6C(=O)O[C@@H]1C[C@@]6(C)[C@H](C4=O)[C@@]32O5 (stereo not given in full),17.1
2,COc1ccc2nc3n[nH]c(N)c3nc2c1,18.9
3,O=C(NC(N1CCN(c2cc3c(cc2F)c(=O)c(C(=O)O)cn3C2CC2)CC1)(C(F)(F)F)C(F)(F)F)c1ccccc1,34.8
4,Cc1cc2nc3[nH]c4c(Cl)cc(Cl)cc4c3nc2cc1C,> 100
5,Cn1c(CCC2(C)Cc3ccccc3C(=O)O2)cc2ccccc2c1=O (stereo not given),84

# Test system: SNB-19 CNS
# Assay: NCI anticancer screen, dose series, 48 h
row,Structure (SMILES),TGI [µM]
1,C[C@]12OC(=O)[C@]3(O)CC[C@H]4[C@@H](C[C@@H](O)[C@@]5(Cl)CC=CC(=O)[C@]45C)[C@]45OCC6C(=O)O[C@@H]1C[C@@]6(C)[C@H](C4=O)[C@@]32O5 (stereo not given in full),18.2
2,COc1ccc2nc3n[nH]c(N)c3nc2c1,> 100
3,O=C(NC(N1CCN(c2cc3c(cc2F)c(=O)c(C(=O)O)cn3C2CC2)CC1)(C(F)(F)F)C(F)(F)F)c1ccccc1,> 100
4,Cc1cc2nc3[nH]c4c(Cl)cc(Cl)cc4c3nc2cc1C,> 100
5,Cn1c(CCC2(C)Cc3ccccc3C(=O)O2)cc2ccccc2c1=O (stereo not given),> 100

# Test system: SF-295 CNS
# Assay: NCI anticancer screen, dose series, 48 h
row,Structure (SMILES),TGI [µM]
1,C[C@]12OC(=O)[C@]3(O)CC[C@H]4[C@@H](C[C@@H](O)[C@@]5(Cl)CC=CC(=O)[C@]45C)[C@]45OCC6C(=O)O[C@@H]1C[C@@]6(C)[C@H](C4=O)[C@@]32O5 (stereo not given in full),12.4
2,COc1ccc2nc3n[nH]c(N)c3nc2c1,> 76.7
3,O=C(NC(N1CCN(c2cc3c(cc2F)c(=O)c(C(=O)O)cn3C2CC2)CC1)(C(F)(F)F)C(F)(F)F)c1ccccc1,> 100
4,Cc1cc2nc3[nH]c4c(Cl)cc(Cl)cc4c3nc2cc1C,> 100
5,Cn1c(CCC2(C)Cc3ccccc3C(=O)O2)cc2ccccc2c1=O (stereo not given),> 100

# Test system: SK-MEL-28 melanoma
# Assay: NCI anticancer screen, dose series, 48 h
row,Structure (SMILES),TGI [µM]
1,C[C@]12OC(=O)[C@]3(O)CC[C@H]4[C@@H](C[C@@H](O)[C@@]5(Cl)CC=CC(=O)[C@]45C)[C@]45OCC6C(=O)O[C@@H]1C[C@@]6(C)[C@H](C4=O)[C@@]32O5 (stereo not given in full),75
2,COc1ccc2nc3n[nH]c(N)c3nc2c1,42.2
3,O=C(NC(N1CCN(c2cc3c(cc2F)c(=O)c(C(=O)O)cn3C2CC2)CC1)(C(F)(F)F)C(F)(F)F)c1ccccc1,> 100
4,Cc1cc2nc3[nH]c4c(Cl)cc(Cl)cc4c3nc2cc1C,> 100
5,Cn1c(CCC2(C)Cc3ccccc3C(=O)O2)cc2ccccc2c1=O (stereo not given),76.6

# Test system: HL-60(TB) leukemia
# Assay: NCI anticancer screen, dose series, 48 h
row,Structure (SMILES),TGI [µM]
1,C[C@]12OC(=O)[C@]3(O)CC[C@H]4[C@@H](C[C@@H](O)[C@@]5(Cl)CC=CC(=O)[C@]45C)[C@]45OCC6C(=O)O[C@@H]1C[C@@]6(C)[C@H](C4=O)[C@@]32O5 (stereo not given in full),12.8
2,COc1ccc2nc3n[nH]c(N)c3nc2c1,4.48
3,O=C(NC(N1CCN(c2cc3c(cc2F)c(=O)c(C(=O)O)cn3C2CC2)CC1)(C(F)(F)F)C(F)(F)F)c1ccccc1,53.8
4,Cc1cc2nc3[nH]c4c(Cl)cc(Cl)cc4c3nc2cc1C,> 100
5,Cn1c(CCC2(C)Cc3ccccc3C(=O)O2)cc2ccccc2c1=O (stereo not given),> 100

# Test system: NCI-H460 lung
# Assay: NCI anticancer screen, dose series, 48 h
row,Structure (SMILES),TGI [µM]
1,C[C@]12OC(=O)[C@]3(O)CC[C@H]4[C@@H](C[C@@H](O)[C@@]5(Cl)CC=CC(=O)[C@]45C)[C@]45OCC6C(=O)O[C@@H]1C[C@@]6(C)[C@H](C4=O)[C@@]32O5 (stereo not given in full),9.54
2,COc1ccc2nc3n[nH]c(N)c3nc2c1,> 84.2
3,O=C(NC(N1CCN(c2cc3c(cc2F)c(=O)c(C(=O)O)cn3C2CC2)CC1)(C(F)(F)F)C(F)(F)F)c1ccccc1,> 100
4,Cc1cc2nc3[nH]c4c(Cl)cc(Cl)cc4c3nc2cc1C,> 100
5,Cn1c(CCC2(C)Cc3ccccc3C(=O)O2)cc2ccccc2c1=O (stereo not given),76.8

# Test system: IGROV1 ovarian
# Assay: NCI anticancer screen, dose series, 48 h
row,Structure (SMILES),TGI [µM]
1,C[C@]12OC(=O)[C@]3(O)CC[C@H]4[C@@H](C[C@@H](O)[C@@]5(Cl)CC=CC(=O)[C@]45C)[C@]45OCC6C(=O)O[C@@H]1C[C@@]6(C)[C@H](C4=O)[C@@]32O5 (stereo not given in full),2.74
2,COc1ccc2nc3n[nH]c(N)c3nc2c1,17.1
3,O=C(NC(N1CCN(c2cc3c(cc2F)c(=O)c(C(=O)O)cn3C2CC2)CC1)(C(F)(F)F)C(F)(F)F)c1ccccc1,> 100
